From ChEMBL document CHEMBL1154730, “Novel quinolines and pyrimido[4,5-b]quinolines bearing biologically active sulfonamide moiety as a new class of antitumor agents” (Eur J Med Chem, 2010)
≈ marks a conversion by molar mass, not a printed value.

Experiments:
[1] = Cytotoxicity against mouse EAC cells assessed as non-viable cells at 100 ug/ml after 2 hrs by trypan blue exclusion; format: functional, Ehrlich
[2] = Cytotoxicity against mouse EAC cells assessed as non-viable cells at 50 ug/ml after 2 hrs by trypan blue exclusion; format: functional, Ehrlich
[3] = Cytotoxicity against mouse EAC cells assessed as non-viable cells at 25 ug/ml after 2 hrs by trypan blue exclusion; format: functional, Ehrlich
[4] = Cytotoxicity against mouse EAC cells after 2 hrs by trypan blue exclusion; format: functional, cell-based; conditions: ehrlich
[5] = Cytotoxicity against mouse EAC cells assessed as non-viable cells at 10 ug/ml after 2 hrs by trypan blue exclusion; format: functional, Ehrlich

SMILES	Activity [1] [%]	Activity [2] [%]	Activity [3] [%]	IC50 [4] [µg/mL]	Activity [5] [%]
Nc1nc(=S)[nH]c2c1C(c1ccc(Cl)cc1Cl)C1=C(CCCC1=O)N2c1ccc(S(N)(=O)=O)cc1 (stereo not given)	100	100	50	25 (≈ 45.6 µM)	30
N#CC1=C(NC(=S)Nc2ccccc2)N(c2ccc(S(N)(=O)=O)cc2)C2=C(C(=O)CCC2)C1c1ccc(Cl)cc1Cl (stereo not given)	95	55	50	25 (≈ 40 µM)	40
N#CC1=C(NC(=S)Nc2ccc(Cl)cc2)N(c2ccc(S(N)(=O)=O)cc2)C2=C(C(=O)CCC2)C1c1ccc(Cl)cc1Cl (stereo not given)	100	100	60	40 (≈ 60.7 µM)	30
N=c1c2c([nH]c(=S)n1-c1ccccc1)N(c1ccc(S(N)(=O)=O)cc1)C1=C(C(=O)CCC1)C2c1ccc(Cl)cc1Cl (stereo not given)	60	50	30	50 (≈ 80.1 µM)	10
N=c1c2c([nH]c(=S)n1-c1ccc(Br)cc1)N(c1ccc(S(N)(=O)=O)cc1)C1=C(C(=O)CCC1)C2c1ccc(Cl)cc1Cl (stereo not given)	70	50	30	50 (≈ 71.1 µM)	30
NS(=O)(=O)c1ccc(N2C3=C(C(=O)CCC3)C(c3ccc(Cl)cc3Cl)c3c2[nH]c(=S)[nH]c3=S)cc1 (stereo not given)	57	39	30	> 100	11
N#CC1=C(NC(=O)CCC(=O)O)N(c2ccc(S(N)(=O)=O)cc2)C2=C(C(=O)CCC2)C1c1ccc(Cl)cc1Cl (stereo not given)	60	50	35	50 (≈ 84.8 µM)	20
CCCCNC(=S)NC1=C(C#N)C(c2ccc(Cl)cc2Cl)C2=C(CCCC2=O)N1c1ccc(S(N)(=O)=O)cc1 (stereo not given)	40	35	30	> 100	30
Nc1nc(=O)[nH]c2c1C(c1ccc(Cl)cc1Cl)C1=C(CCCC1=O)N2c1ccc(S(N)(=O)=O)cc1 (stereo not given)	100	90	80	6.9 (≈ 13 µM)	80
C=CCn1c(=S)[nH]c2c(c1=N)C(c1ccc(Cl)cc1Cl)C1=C(CCCC1=O)N2c1ccc(S(N)(=O)=O)cc1 (stereo not given)	75	50	40	50 (≈ 85 µM)	30
C=CCNC(=S)NC1=C(C#N)C(c2ccc(Cl)cc2Cl)C2=C(CCCC2=O)N1c1ccc(S(N)(=O)=O)cc1 (stereo not given)	40	33	30	> 100	10
CCCCn1c(=S)[nH]c2c(c1=N)C(c1ccc(Cl)cc1Cl)C1=C(CCCC1=O)N2c1ccc(S(N)(=O)=O)cc1 (stereo not given)	80	80	70	7 (≈ 11.6 µM)	70
N#CC1=C(N)N(c2ccc(S(N)(=O)=O)cc2)C2=C(C(=O)CCC2)C1c1ccc(Cl)cc1Cl (stereo not given)	95	65	50	25 (≈ 51.1 µM)	40
N#CC1=C(N2C(=O)CCC2=O)N(c2ccc(S(N)(=O)=O)cc2)C2=C(C(=O)CCC2)C1c1ccc(Cl)cc1Cl (stereo not given)	90	70	50	25 (≈ 43.7 µM)	20
N#CC1=C(NC(N)=O)N(c2ccc(S(N)(=O)=O)cc2)C2=C(C(=O)CCC2)C1c1ccc(Cl)cc1Cl (stereo not given)	60	40	35	75 (≈ 141 µM)	20
N#CC1=C(NC(=S)Nc2ccc(Br)cc2)N(c2ccc(S(N)(=O)=O)cc2)C2=C(C(=O)CCC2)C1c1ccc(Cl)cc1Cl (stereo not given)	90	90	50	25 (≈ 35.5 µM)	50
N#CC1=C(NS(=O)(=O)c2ccc([N+](=O)[O-])cc2)N(c2ccc(S(N)(=O)=O)cc2)C2=C(C(=O)CCC2)C1c1ccc(Cl)cc1Cl (stereo not given)	90	85	85	20 (≈ 29.6 µM)	50
N#CC1=C(NS(=O)(=O)c2ccc(Br)cc2)N(c2ccc(S(N)(=O)=O)cc2)C2=C(C(=O)CCC2)C1c1ccc(Cl)cc1Cl (stereo not given)	100	90	90	5.5 (≈ 7.76 µM)	90
N=c1c2c([nH]c(=S)n1-c1ccc(Cl)cc1)N(c1ccc(S(N)(=O)=O)cc1)C1=C(C(=O)CCC1)C2c1ccc(Cl)cc1Cl (stereo not given)	95	90	60	10 (≈ 15.2 µM)	50
COc1cccc2c1C(=O)c1c(O)c3c(c(O)c1C2=O)C[C@@](O)(C(=O)CO)C[C@@H]3O[C@H]1C[C@H](N)[C@H](O)[C@H](C)O1 [DOXORUBICIN]	100	68	32	38 (≈ 69.9 µM)	19
